Reference: BindingDB's records for patent US20240343694 (Korea Reserarch Institute of Chemical Technology, 2024)

Tests used:
[1] = target: T1, Epidermal growth factor receptor [1-763,'FHEA',764-1210] (UniProt P00533); assay: Inhibitory Activity of Compounds Against EGFR Mutant Enzyme
T1 construct: 1-763,'FHEA',764-1210
Experimental: (§1) The activity of the compounds of the present invention against EGFR mutant enzymes was measured using the HTRF system purchased from Cisbio as follows. For an EGFR mutant enzyme, the EGFR del19 enzyme was a recombinant protein purchased from Carna Biosciences, and the EGFR A763_Y764insFHEA enzyme was a recombinant protein purchased from SignalChem, respectively.The composition of the assay buffer used for activity measurement was 50 mM tris-HCl pH 7.5, 100 mM NaCl, 7.5 mM MgCl2, 3 mM KCl, 0.01% tween 20, 0.1% BSA, and 1 mM DTT. An enzymatic reaction was performed using a peptide substrate labeled with ATP at a concentration of […] and biotin at a concentration of […]. The analysis of the inhibitory effect of the compounds on EGFR activity was performed according to the following method.Component 1:4 μL of EGFR mutant enzymeComponent 2:2 μL of compound solutionComponent 3:4 μL of ATP and a biotin labeled peptideThe enzyme reaction begins by first mixing component 1 and component 2 and then adding component 3 thereto. After the reaction at 37° C. for 2 hours, […] of a measurement solution consisting of streptavidin-XL665 and a europium-labeled anti-phosphotyrosine antibody purchased from Cisbio was added to the enzyme reaction solution and reacted at room temperature for 1 hour. Finally, the ratio of fluorescence values at 615 nm and 665 nm was measured using Perkin-Elmer's Envision instrument to calculate enzyme activity and confirm the inhibitory ability of the compounds.

[2] = target: T2, Epidermal growth factor receptor [DEL746-750] (Homo sapiens, UniProt P00533); assay: as above
T2 construct: gene EGFR
Experimental: as §1

[3] = target: T3, Receptor tyrosine-protein kinase erbB-2 [1-775,'YVMA',776-1255] (Homo sapiens, UniProt P04626); assay: Inhibitory Activity of Compounds Against HER2 A775_G776insYVMA mutant enzyme
T3 construct: 1-775,'YVMA',776-1255
Experimental: The activity of the compounds of the present invention against HER mutant enzymes was measured using the HTRF system purchased by Cisbio as follows. As a HER2 mutant enzyme, the HER2 A775_G776insYVMA mutant enzyme was used by purchasing a recombinant protein provided by Carna Biosciences.The composition of the assay buffer used for activity measurement was 50 mM tris-HCl pH 7.5, 100 mM NaCl, 7.5 mM MgCl2, 3 mM KCl, 0.01% tween 20, 0.1% BSA, and 1 mM DTT. In addition thereto, the enzymatic reaction was performed using a peptide substrate labeled with ATP at a concentration of […] and biotin at a concentration of […]. The analysis of the activity inhibitory effect of the compounds on HER2 A775_G776insYVMA mutation was performed according to the following method.Component 1:4 μL of HER2 A775_G776insYVMA mutant enzymeComponent 2:2 μL of compound solutionComponent 3:4 μL of ATP and a biotin labeled peptideThe enzyme reaction begins by first mixing component 1 and component 2 and then adding component 3 thereto. After the reaction at 37° C. for 2 hours, […] of a measurement solution consisting of streptavidin-XL665 and a europium-labeled anti-phosphotyrosine antibody purchased from Cisbio was added to the enzyme reaction solution and reacted at room temperature for 1 hour. Finally, the ratio of fluorescence values at 615 nm and 665 nm was measured using Perkin-Elmer's Envision equipment to calculate enzyme activity and confirm the inhibitory ability of the compounds.

[4] = target: T4, Epidermal growth factor receptor [DEL746-750] (Homo sapiens, UniProt P00533, DEL746-750); assay: Inhibitory Activity of Compounds Against EGFR Mutant Enzyme
T4 construct: gene EGFR
Experimental: as §1

T3 sequence (P04626 with tags, fused parts or gaps INS775YVMA limits assumed): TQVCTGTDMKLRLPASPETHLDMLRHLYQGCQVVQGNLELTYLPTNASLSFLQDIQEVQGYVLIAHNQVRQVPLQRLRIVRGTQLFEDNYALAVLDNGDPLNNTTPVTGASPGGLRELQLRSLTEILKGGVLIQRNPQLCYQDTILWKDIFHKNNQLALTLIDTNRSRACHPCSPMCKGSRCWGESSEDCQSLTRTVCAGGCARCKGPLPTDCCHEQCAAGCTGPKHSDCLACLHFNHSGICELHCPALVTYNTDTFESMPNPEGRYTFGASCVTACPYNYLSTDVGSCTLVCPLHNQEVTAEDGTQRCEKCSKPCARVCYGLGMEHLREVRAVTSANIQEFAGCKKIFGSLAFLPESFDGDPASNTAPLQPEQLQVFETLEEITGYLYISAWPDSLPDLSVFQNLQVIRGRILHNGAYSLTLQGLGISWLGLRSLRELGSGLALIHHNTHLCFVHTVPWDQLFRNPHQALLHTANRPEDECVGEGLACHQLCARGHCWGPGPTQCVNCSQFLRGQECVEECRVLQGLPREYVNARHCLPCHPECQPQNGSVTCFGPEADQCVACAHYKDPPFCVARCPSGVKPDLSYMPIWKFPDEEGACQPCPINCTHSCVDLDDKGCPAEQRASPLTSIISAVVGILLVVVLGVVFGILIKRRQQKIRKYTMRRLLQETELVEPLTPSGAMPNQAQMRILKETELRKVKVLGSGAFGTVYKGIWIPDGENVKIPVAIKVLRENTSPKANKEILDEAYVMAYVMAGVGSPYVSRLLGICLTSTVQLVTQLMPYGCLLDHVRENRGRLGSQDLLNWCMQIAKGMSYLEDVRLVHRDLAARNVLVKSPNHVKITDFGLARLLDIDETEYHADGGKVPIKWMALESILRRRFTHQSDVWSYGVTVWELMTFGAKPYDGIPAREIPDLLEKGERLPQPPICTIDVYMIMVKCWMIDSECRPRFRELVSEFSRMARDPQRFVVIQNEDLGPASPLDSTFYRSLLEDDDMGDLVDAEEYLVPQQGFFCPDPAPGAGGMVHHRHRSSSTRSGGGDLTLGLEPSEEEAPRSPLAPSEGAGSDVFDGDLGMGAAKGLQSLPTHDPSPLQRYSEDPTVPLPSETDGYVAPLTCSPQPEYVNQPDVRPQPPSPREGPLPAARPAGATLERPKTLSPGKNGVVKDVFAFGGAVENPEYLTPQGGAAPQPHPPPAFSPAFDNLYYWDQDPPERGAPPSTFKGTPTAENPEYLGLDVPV
T1 sequence (P00533 with tags, fused parts or gaps INS763FHEA limits assumed): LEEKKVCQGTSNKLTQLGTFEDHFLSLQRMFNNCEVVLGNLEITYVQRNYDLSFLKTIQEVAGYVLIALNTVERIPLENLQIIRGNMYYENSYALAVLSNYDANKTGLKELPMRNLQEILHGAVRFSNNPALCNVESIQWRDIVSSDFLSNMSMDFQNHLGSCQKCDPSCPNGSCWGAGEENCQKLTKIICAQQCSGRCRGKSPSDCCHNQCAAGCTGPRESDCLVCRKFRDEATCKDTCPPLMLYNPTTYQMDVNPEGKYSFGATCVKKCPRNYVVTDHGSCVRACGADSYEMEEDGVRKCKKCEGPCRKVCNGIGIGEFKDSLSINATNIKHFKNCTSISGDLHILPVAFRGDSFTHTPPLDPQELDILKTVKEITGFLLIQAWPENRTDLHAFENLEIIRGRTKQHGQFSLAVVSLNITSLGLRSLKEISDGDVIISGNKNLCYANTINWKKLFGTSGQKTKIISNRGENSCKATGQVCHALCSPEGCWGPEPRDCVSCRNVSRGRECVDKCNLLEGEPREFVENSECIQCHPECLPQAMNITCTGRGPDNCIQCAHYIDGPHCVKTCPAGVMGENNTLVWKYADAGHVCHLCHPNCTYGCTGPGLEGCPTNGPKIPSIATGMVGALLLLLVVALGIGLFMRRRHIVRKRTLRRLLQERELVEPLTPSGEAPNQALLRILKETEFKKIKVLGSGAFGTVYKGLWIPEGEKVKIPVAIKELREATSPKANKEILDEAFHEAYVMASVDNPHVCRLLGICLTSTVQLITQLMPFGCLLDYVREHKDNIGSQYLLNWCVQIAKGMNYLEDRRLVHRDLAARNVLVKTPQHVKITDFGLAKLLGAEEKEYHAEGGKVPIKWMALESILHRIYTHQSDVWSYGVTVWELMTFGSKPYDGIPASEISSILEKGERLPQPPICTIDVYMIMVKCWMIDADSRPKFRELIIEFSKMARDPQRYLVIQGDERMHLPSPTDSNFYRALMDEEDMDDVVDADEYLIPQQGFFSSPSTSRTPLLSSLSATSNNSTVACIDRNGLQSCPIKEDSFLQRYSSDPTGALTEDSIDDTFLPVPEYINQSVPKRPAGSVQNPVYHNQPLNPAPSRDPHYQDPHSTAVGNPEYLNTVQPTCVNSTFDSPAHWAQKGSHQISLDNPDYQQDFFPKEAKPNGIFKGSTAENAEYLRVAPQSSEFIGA
T2 sequence (P00533 with tags, fused parts or gaps DEL746-750 limits assumed, stated change not applied): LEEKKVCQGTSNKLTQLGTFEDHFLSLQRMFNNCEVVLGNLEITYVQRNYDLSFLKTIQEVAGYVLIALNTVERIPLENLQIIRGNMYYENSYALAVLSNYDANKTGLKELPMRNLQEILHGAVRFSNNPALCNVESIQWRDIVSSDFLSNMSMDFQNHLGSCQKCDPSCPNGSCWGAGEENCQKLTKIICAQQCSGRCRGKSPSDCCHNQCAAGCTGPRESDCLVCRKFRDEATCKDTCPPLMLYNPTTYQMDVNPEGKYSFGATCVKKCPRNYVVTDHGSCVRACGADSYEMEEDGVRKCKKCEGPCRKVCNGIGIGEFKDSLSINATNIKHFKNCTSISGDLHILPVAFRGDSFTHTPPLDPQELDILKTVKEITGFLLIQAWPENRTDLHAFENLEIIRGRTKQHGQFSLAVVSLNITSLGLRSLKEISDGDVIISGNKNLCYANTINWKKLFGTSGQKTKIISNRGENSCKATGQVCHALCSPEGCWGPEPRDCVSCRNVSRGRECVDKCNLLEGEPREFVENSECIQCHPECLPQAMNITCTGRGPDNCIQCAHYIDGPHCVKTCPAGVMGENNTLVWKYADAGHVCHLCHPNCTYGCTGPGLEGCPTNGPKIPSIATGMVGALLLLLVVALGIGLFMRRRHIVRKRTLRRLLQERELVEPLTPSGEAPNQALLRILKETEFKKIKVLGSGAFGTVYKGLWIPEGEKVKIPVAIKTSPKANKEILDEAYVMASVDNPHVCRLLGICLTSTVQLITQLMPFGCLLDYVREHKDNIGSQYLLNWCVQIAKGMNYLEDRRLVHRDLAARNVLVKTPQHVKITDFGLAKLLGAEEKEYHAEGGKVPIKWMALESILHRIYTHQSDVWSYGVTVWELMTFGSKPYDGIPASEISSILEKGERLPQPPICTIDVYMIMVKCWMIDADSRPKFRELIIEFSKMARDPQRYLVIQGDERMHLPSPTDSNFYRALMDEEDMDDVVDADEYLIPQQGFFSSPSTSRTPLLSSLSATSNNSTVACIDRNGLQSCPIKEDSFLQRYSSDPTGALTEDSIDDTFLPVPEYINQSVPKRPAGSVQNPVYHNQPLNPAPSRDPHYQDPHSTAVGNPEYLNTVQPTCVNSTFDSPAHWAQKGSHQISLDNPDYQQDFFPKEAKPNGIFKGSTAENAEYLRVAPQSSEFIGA
T4 sequence (P00533 with tags, fused parts or gaps DEL746-750 limits assumed): as the sequence (P00533 with tags, fused parts or gaps DEL746-750 limits assumed, stated change not applied) above

CS(=O)(=O)N1CCCc2cccc(Nc3nc(Cl)ncc3Cl)c21 [US20240343694, Example 57]
IC50 [1]: < 1 nM
IC50 [2]: < 1 nM
IC50 [3]: < 1 nM

CCS(=O)(=O)Nc1ccccc1Nc1nc(Cl)ncc1C [US20240343694, Example 27]
IC50 [1]: 9 nM
IC50 [2]: 3 nM
IC50 [3]: 30 nM

Cc1cnc(Cl)nc1Nc1ccccc1NS(C)(=O)=O [US20240343694, Example 24]
IC50 [1]: 3 nM
IC50 [2]: < 1 nM
IC50 [3]: 27 nM

O=S1(=O)CCCCN1c1ccccc1Nc1nc(Cl)ncc1Cl [US20240343694, Example 78]
IC50 [1]: < 1 nM
IC50 [2]: < 1 nM
IC50 [3]: 3 nM

CC(C)OC(=O)c1cnc(Cl)nc1Nc1cccc2c1N(S(C)(=O)=O)CC2 [US20240343694, Example 69]
IC50 [1]: < 1 nM
IC50 [4]: < 1 nM
IC50 [3]: 6 nM

Cc1ccc(Nc2nc(Cl)ncc2Cl)c(N(C)S(C)(=O)=O)c1 [US20240343694, Example 55]
IC50 [1]: < 1 nM
IC50 [2]: < 1 nM
IC50 [3]: < 1 nM

COC(=O)c1cnc(Cl)nc1Nc1cccc2c1N(S(C)(=O)=O)CC2 [US20240343694, Example 68]
IC50 [1]: < 1 nM
IC50 [2]: < 1 nM
IC50 [3]: 6 nM

CCS(=O)(=O)N(C)c1ccccc1Nc1nc(Cl)ncc1Cl [US20240343694, Example 40]
IC50 [1]: 1 nM
IC50 [2]: < 1 nM
IC50 [3]: 4 nM

Cc1cccc(Nc2nc(Cl)ncc2Cl)c1NS(C)(=O)=O [US20240343694, Example 46]
IC50 [1]: < 1 nM
IC50 [2]: < 1 nM
IC50 [3]: 2 nM

CCCS(=O)(=O)Nc1ccccc1Nc1nc(Cl)ncc1C [US20240343694, Example 26]
IC50 [1]: 200 nM
IC50 [2]: 4 nM
IC50 [3]: 80 nM

COc1cc(N(C)CCN(C)C)c(N)cc1Nc1ncc(Cl)c(Nc2ccccc2NS(C)(=O)=O)n1 [US20240343694, Example 38]
IC50 [1]: 2 nM
IC50 [2]: < 1 nM
IC50 [3]: 14 nM

Cc1cccc(Nc2nc(Cl)ncc2Cl)c1N(C)S(C)(=O)=O [US20240343694, Example 48]
IC50 [1]: 7 nM
IC50 [2]: 3 nM
IC50 [3]: 20 nM

CC(=O)Nc1c(Nc2nc(Cl)ncc2Cl)ccc(C)c1C [US20240343694, Example 87]
IC50 [1]: 24 nM
IC50 [2]: 4 nM
IC50 [3]: 107 nM

C=CC(=O)Nc1cc(N)c(OC)cc1OCCN(C)C [US20240343694, Example 71]
IC50 [1]: 5 nM
IC50 [2]: < 1 nM
IC50 [3]: 61 nM

CCN(c1ccccc1Nc1nc(Cl)ncc1Cl)S(C)(=O)=O [US20240343694, Example 41]
IC50 [1]: 1 nM
IC50 [2]: < 1 nM
IC50 [3]: 9 nM

CC(=O)Nc1c(C)cccc1Nc1nc(Cl)ncc1Cl [US20240343694, Example 89]
IC50 [1]: 77 nM
IC50 [2]: 20 nM
IC50 [3]: 479 nM

Cc1ccc(Nc2nc(Cl)ncc2Cl)c(NS(C)(=O)=O)c1 [US20240343694, Example 56]
IC50 [1]: < 1 nM
IC50 [2]: < 1 nM
IC50 [3]: < 1 nM

CS(=O)(=O)Nc1c(Nc2nc(Cl)ncc2Cl)ccc2nccnc12 [US20240343694, Example 76]
IC50 [1]: < 1 nM
IC50 [2]: < 1 nM
IC50 [3]: 1 nM

C=CC(=O)Nc1cc(N)c(OC)cc1N(C)CCN(C(=O)OCc1ccccc1)C(C)C [US20240343694, Example 32]
IC50 [1]: 1 nM
IC50 [2]: < 1 nM
IC50 [3]: 8 nM

CC(=O)N(C)c1c(C)cccc1Nc1nc(Cl)ncc1Cl [US20240343694, Example 88]
IC50 [1]: 2 nM
IC50 [2]: < 1 nM
IC50 [3]: 14 nM

C=CC(=O)Nc1cc(N)c(OC)cc1OCCN1CCOCC1 [US20240343694, Example 80]
IC50 [1]: < 1 nM
IC50 [2]: < 1 nM
IC50 [3]: 1 nM

C=CC(=O)Nc1cc(N)c(OC)cc1N1CCC(N2CCN(C)CC2)CC1 [US20240343694, Example 60]
IC50 [1]: < 1 nM
IC50 [2]: < 1 nM
IC50 [3]: 10 nM
